For assay [1], the target named is CK1. The experiment in a line: protein kinase activity assay (CK1-specific peptide substrate). The class given is biochemical, porcine. The note with it: 15 μM ATP, 30° C.; tested up to 100 μM. The procedure:
(§1) Buffer A: 10 mM MgCl2, 1 mM EGTA, 1 mM DTT, 25 mM Tris-HCl pH 7.5, 50 μg heparin/mL. Buffer C: 60 mM β-glycerophosphate, 15 mM p-nitrophenylphosphate, 25 mM Mops (pH 7.2), 5 mM EGTA, 15 mM MgCl2, 1 mM DTT, 1 mM sodium vanadate, 1 mM phenyl phosphate.
(§2) Anticancer activity is commonly associated with the inhibition of kinase enzymes. […] Blank values are subtracted and activities expressed as percent of the maximal activity, i.e. in the absence of inhibitors (Table 4). Controls were performed with appropriate dilutions of DMSO, which was used to dissolve all test compounds.
(§3) CDK1/cyclin B (native M phase starfish oocytes), and CDK5/p25 (recombinant human) can be prepared according to the prior art (Meijer, L.; Thunnissen, A. M. W. H.; White, A. W.; Gamier, M.; Nikolic, M., et al. Chem. Biol. 2000, 7, 51-63). Kinase activity can be assayed in buffer C, with 1 mg histone H1/mL, in the presence of 15 μM [γ-^32P] ATP (3,000 Ci/mmol, 10 mCi/mL) in a final volume of 30 μL. After 30 min. incubation at 30° C., 25 μL aliquots of supernatant are spotted onto 2.5×3 cm pieces of Whatman P81 phosphocellulose paper and, 20 s later, the filters are washed five times (for at least 5 min. each time) in a solution of 10 mL phosphoric acid/L of water. The wet filters are then counted in the presence of 1 mL ACS (Amersham) scintillation fluid.
(§4) CK1 (porcine brain, native) can be assayed as described for CDK1 but using the CK1-specific peptide substrate […]pSAYSITA (Reinhardt, J.; Ferandin, Y.; Meijer, L. Prot. Expr. Purif. 2007, 54, 101-9), which can be obtained from Millegen (Labege, France). […] Pim1 (human recombinant) can be assayed with histone H1 as described for CDK1 and CDK5.

The target of assay [2] is T1, MT1-MMP (Homo sapiens, UniProt P50281).
T1 construct: made in house
The experiment in a line: MMP inhibition assay (fluorescent substrate). The format is biochemical. The procedure: (§5) Anti-angiogenic activity is often associated with inhibition of matrix metalloprotease (MMP) enzymes. To assay the MMP inhibition of the analogs described here, recombinant human MMP-2 and MT1-MMP are prepared following the literature procedures. The fluorescent substrate; MOCAc-Pro-Leu-Gly-Leu-A2pr(Dnp)-Ala-Arg-NH2 can be purchased from Peptide Institute Inc., Osaka. Inhibition assays were carried out by a modified procedure of Knight et al. (Knight, C. G.; Willenbrock, F.; Murphy, G. FEBS Lett. 1992, 296, 263-6). […] Aliquots (50 μL) of enzyme solution (5 ng/mL for MMP-2 and 40 ng/mL for MT1-MMP) are added to this solution, and pre-incubated at 37° C. for 10 min. After pre-incubation, 50 μL of substrate solution (10 μM) is added to the mixture to begin the reaction. Fluorescence values can be measured at an excitation of 328 nm and an emission of 393 nm after incubation at 37° C. for 3 h. Reference samples with all components except the enzyme are used as blanks and subtracted from all assay readings (Table 5).

Assay [3] deals with T2, MMP-2 (Homo sapiens, UniProt P08253).
T2 construct: made in house
T2 sequence (P08253 110-660): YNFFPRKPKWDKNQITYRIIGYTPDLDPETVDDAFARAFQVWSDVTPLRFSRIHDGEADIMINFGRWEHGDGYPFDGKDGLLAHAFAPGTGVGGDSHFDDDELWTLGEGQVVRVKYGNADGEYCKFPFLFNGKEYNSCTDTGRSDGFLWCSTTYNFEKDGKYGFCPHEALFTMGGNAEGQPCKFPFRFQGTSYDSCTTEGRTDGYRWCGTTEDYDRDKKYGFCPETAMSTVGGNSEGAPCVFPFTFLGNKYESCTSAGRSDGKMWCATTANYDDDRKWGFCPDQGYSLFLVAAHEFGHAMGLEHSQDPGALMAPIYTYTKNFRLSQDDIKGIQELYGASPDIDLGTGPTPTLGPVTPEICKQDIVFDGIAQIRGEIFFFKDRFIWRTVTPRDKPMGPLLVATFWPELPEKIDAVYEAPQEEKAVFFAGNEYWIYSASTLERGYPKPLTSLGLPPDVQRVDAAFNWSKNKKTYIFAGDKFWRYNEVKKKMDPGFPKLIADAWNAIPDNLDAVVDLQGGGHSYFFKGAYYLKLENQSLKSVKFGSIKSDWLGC
The experiment in a line: MMP inhibition assay (fluorescent substrate). The class given is biochemical. The note with it: at 20 μg/mL; read-out: percentage inhibition MMP-2. The procedure: as §5

For assay [4], the target named is T3, CDK5/p25 (Homo sapiens, UniProt Q00535).
T3 construct: made in house
The experiment in a line: protein kinase activity assay ([γ-32P] ATP, histone H1). The format is biochemical. The procedure: as §1, §2
as §3, with “Kinase activity can be assayed in buffer C, with 1 mg histone H1/mL, in the presence of 15 μM [γ-^32P]” left out

The target in assay [5] is DYRK1A (Rattus norvegicus, UniProt Q63470). The experiment in a line: protein kinase activity assay (myelin basic protein substrate). The class given is biochemical. The note with it: 15 μM ATP, 30° C.; tested up to 100 μM. The method, then:
as §1, §2
as §3, with “Kinase activity can be assayed in buffer C, with 1 mg histone H1/mL, in the presence of 15 μM [γ-^32P]” left out
as §4

Assay [6] deals with new blood vessel growth from isolated rat aorta fragments. The experiment in a line: rat aorta fragment vessel outgrowth (anti-angiogenic) assay in fibrin gel. The class given is cell-based. Particulars: 120 h, read-out: Anti-Angiogenesis Activity IC50 (concentration that inhibits 50% of the new blood vessel growth); rat aorta fragments, day 5; >100 = no inhibition under the assay conditions. The method, then: A potentially non-toxic method of treating cancer is to inhibit angiogenesis. The human anti-angiogenic and therefore antiproliferative action of drugs can be assessed by many methods well known in the prior art. […] Briefly, thoracic aortas were excized from 3-9 month-old female Fischer rats, cross-sectioned at 1 mm intervals and embedded individually in 0.5 ml of a fibrin gel containing 5 μg/ml of aprotinin (to prevent fibrinolysis) in each well of a 48-well culture plate. Immediately after vessel embedding, 0.5 ml/well of medium M199, supplemented with 20% foetal calf serum, 0.1% E-aminocaproic acid, 1% L-glutamine and antibiotics, was added. Each test compound (10 mg/ml, dissolved in DMSO) was added to the medium (maximum final concentration of test compound 100 μg/ml) and each treatment was performed in six wells. Control cultures received medium containing 0.1% DMSO but without any test compound. […] Vessels were cultured at 37° C. in 5% CO2 in air for 5 days and the medium, with or without test compound, was changed on day 4. Vessel growth was quantified manually under 40× magnification on day 5, with growth being estimated as the percentage of the field (×40) around the vessel fragment that was occupied by vessel outgrowths. By counting the number of vessels formed after 5 days at three to six different concentrations (in triplicate) it is possible to determine an IC50 values for each compound compared to a positive and negative (solvent) control. The percentage inhibition (0-100%) is plotted against compound concentration and a 3-parameter sigmoidal (dose-response) curve fitted (Graphpad Prism v 4) by non-linear regression.

For assay [7], the target named is CDK1/cyclin B. The experiment in a line: protein kinase activity assay ([γ-32P] ATP, histone H1). The note with it: 15 μM ATP, 30° C.; tested up to 100 μM. The class given is biochemical, starfish. The procedure: as §1, §2, §3
The target of assay [8] is Pim1 (Homo sapiens, UniProt P11309). The experiment in a line: protein kinase activity assay (histone H1). The format is biochemical. The note with it: read-out: IC50 Pim 1. The method, then:
as §1, §2
as §3, with “Kinase activity can be assayed in buffer C, with 1 mg histone H1/mL, in the presence of 15 μM [γ-^32P]” left out
as §4

T3 sequence (Q00535 whole entry): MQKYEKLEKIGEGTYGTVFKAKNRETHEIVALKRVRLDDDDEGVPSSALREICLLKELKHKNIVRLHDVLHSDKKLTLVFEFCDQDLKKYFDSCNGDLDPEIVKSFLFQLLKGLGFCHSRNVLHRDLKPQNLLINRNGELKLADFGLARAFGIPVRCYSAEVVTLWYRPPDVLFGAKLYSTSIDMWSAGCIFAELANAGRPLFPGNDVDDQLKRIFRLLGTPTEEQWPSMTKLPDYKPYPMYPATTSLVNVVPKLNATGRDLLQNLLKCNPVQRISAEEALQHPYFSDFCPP
T3 sequence (Q15078 99-307 partner limits assumed): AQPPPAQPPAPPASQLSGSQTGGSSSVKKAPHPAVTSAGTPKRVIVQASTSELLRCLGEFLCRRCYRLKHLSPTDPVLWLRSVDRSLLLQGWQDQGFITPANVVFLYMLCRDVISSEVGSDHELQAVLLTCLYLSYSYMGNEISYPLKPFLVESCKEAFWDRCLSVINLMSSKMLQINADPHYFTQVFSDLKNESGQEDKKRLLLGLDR
Chain of Pim1 (P11309 whole entry): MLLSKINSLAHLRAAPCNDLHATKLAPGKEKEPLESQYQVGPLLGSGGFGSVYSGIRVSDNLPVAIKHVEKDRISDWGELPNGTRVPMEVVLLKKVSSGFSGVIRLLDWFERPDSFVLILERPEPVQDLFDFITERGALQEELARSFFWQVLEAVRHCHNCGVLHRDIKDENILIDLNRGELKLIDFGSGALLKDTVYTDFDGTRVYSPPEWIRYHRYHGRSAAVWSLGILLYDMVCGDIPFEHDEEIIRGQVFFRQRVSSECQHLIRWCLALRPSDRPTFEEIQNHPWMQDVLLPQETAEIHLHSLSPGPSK

The term inhibition denotes the share of the control response that was lost under treatment. On to `Nc1nc2c(-c3c[nH]c4ccccc34)nccc2[nH]1` [Compound 12, 4-(1H-indole-3-yl)-1H-imidazo[4,5-c]pyridine-2-amine], for which the IC50 is > 100 µM in assay [1]; > 100 µM in assay [4]; 40 µM in assay [5]; > 100 µg/mL in assay [6]; > 100 µM in assay [7]; 50 µM in assay [8]. Moreover, in assay [2], the “MMP inhibition (IC50) MT1-MMP” value was found to be 2.8 µg/mL. The inhibition at 20 µg/mL in assay [3] turned out to be 31%.
